Consider three compounds from patent publication US4537885A, “Certain benzazocinone and benzazoninone derivatives” (Ciba Geigy Corporation, priority 1984, dated 1985).

Where a name gives a salt, the structure may show the parent alone.

For assay [1], the target named is T1, angiotensin-converting enzyme (Oryctolagus cuniculus, UniProt P12822).
T1 construct: angiotensin-converting enzyme preparation (from lungs of adult male rabbits); from tissue; host or cells: lungs of adult male rabbits
T1 sequence (P12822 34-1310): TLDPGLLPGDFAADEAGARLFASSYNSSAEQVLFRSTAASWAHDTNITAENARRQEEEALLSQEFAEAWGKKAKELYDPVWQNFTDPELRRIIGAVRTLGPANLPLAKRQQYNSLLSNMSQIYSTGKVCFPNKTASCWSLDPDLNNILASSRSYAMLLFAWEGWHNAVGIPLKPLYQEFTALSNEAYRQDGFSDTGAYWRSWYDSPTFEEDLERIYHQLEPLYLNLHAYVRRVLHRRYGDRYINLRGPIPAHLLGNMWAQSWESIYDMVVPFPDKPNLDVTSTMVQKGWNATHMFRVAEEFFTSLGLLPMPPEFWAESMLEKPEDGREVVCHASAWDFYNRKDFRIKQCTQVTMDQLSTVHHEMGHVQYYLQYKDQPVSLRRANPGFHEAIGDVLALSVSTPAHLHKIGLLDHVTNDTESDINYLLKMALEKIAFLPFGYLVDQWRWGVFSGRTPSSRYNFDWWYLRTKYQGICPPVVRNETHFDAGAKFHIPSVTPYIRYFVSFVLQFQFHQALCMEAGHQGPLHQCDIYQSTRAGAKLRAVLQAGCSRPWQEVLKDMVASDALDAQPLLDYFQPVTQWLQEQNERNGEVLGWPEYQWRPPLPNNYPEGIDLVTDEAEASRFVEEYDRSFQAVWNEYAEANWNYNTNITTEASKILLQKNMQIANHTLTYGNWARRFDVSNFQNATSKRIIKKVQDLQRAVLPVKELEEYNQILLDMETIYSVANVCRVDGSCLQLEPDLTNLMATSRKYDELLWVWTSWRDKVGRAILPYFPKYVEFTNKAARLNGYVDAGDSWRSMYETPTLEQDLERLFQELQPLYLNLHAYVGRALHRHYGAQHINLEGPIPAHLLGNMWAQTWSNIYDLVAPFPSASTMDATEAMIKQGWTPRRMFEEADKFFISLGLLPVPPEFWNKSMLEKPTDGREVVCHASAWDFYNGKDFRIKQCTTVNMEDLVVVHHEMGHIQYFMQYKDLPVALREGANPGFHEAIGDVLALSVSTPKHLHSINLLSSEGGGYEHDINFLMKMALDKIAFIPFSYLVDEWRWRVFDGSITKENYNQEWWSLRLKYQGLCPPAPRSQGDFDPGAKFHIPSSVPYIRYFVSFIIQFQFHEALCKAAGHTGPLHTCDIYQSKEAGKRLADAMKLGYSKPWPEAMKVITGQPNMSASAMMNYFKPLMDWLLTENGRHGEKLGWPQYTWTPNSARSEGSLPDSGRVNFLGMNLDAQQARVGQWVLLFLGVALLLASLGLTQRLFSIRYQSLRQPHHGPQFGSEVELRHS
The assay is described as follows: in vitro inhibition of the angiotensin-converting enzyme (hippuryl-histidyl-leucine substrate). The assay is classed as biochemical, rabbit. To be noted: in vitro test; enzyme from lungs of adult male rabbits; 37° C., 30 minutes. How it is done:
Biophys. Acta 293, 451 (1973). According to this method, said compounds are dissolved at about 1 mM concentration in phosphate buffer. […] Said solutions are incubated at 37° C. for 30 minutes and combined with 0.75 ml of 0.6N aqueous sodium hydroxide to stop further reaction. Then 100 microliters of a 0.2% solution of o-phthalaldehyde in methanol are added at room temperature, and 10 minutes later 100 microliters of 6N hydrochloric acid. These samples are read against water in a spectrophotometer set at 360 nm, and the optical densities thereof estimated. They are corrected for the standard curve via a conversion factor expressing nanomoles of histidyl-leucine formed during said 30 minute incubation period. The results are plotted against concentration to determine the IC50, i.e., the concentration of the compound which gives half the activity of the control sample. Illustrative of the invention, and according to the test methods previously described, the following angiotensin-converting enzyme inhibition data is obtained.

For assay [2], the system named is angiotensin-converting enzyme. Nature of the assay: in vivo inhibition of the Angiotensin I induced pressor response in anesthetized normotensive rats. To be noted: p.o. administration of 3.3 mg/kg (rat), at 1 hr. How it is done:
Angiotensin I is hydrolyzed by the action of said converting enzyme to the potent pressor substance Angiotensin II. The inhibition of said enzyme prevents the generation of Angiotensin II from I and, therefore, attenuates any pressor response following an Angiotensin I challenge.
The corresponding in vivo test is performed with male, normotensive rats, which are anesthetized with sodium 5-ethyl-5-(1-methylpropyl)-2-thiobarbiturate. A femoral artery and saphenous vein are cannulated respectively for direct blood pressure measurement and the i.v. administration of Angiotensin I and a compound of this invention. After the basal blood pressure is stabilized, pressor responses to 3 challenges of 333 ng/kg angiotensin I i.v., at 5 minute intervals, are obtained. Such pressure resonses are usually again obtained at 5, 10, 15, 30 and 60 minutes after i.v. administration or 1, 2, 3 and 4 hours after p.o. administration of the compound to be tested, and compared with the initial responses. Any observed decrease of said pressor response caused by the compounds of the invention is an indication of Angiotensin I converting enzyme inhibition.
Illustrative of the invention, and according to the test methods previously described, the following angiotensin-converting enzyme inhibition data is obtained.

`NCCCC[C@H](N[C@H]1CCCc2ccccc2N(CC(=O)O)C1=O)C(=O)O` [S,S compound of example 12, 3-[(5-amino-1-(S)-carboxypentyl)amino]-1-carboxymethyl-3,4,5,6-tetrahydro-(3S)-1-benzazocin-2-1H-one hydrochloride] showed a concentration for half-maximal inhibition (IC50) in assay [1] of 27 nM.
`CCOC(=O)[C@H](CCc1ccccc1)N[C@H]1CCCc2ccccc2N(CC(=O)O)C1=O` [example 8a, 1-carboxymethyl-3-(1-ethoxycarbonyl-3-phenyl-(1S)-propylamino-3,4,5,6-tetrahydro-(3S)-1-benzazocin-2-1H-one hydrochloride]: the “inhibition of Angiotensin I pressor response (in vivo test)” value in assay [2] was found to be 69%.
Compound `O=C(O)CN1C(=O)[C@@H](N[C@@H](CCc2ccccc2)C(=O)O)CCCc2ccccc21` [example 7a, 1-carboxymethyl-3-(1-carboxy-3-phenyl-(1S)-propylamino)-3,4,5,6-tetrahydro-(3S)-1-benzazocin-2-1H-one hydrochloride] displayed an IC50 in assay [1] of 7.5 nM.
